Source: PubChem BioAssay (NCI)
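Interpolation was linear, between the two tested concentrations surrounding the appropriate level; five concentrations were tested over 48 hours in 96-well plates. Definition used: TGI = concentration required for complete inhibition of growth.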

Columns and labels:
Assay in all cases: NCI tumour cell line growth inhibition, 48 h
MDA-N = test system: MDA-N
HCT-15 colon = test system: HCT-15 colon
RXF 393 renal = test system: RXF 393 renal
K-562 leukemia = test system: K-562 leukemia
HOP-92 NSCLC = test system: HOP-92 NSCLC
NCI-H460 lung = test system: NCI-H460 lung
SF-295 CNS = test system: SF-295 CNS
OVCAR-5 ovarian = test system: OVCAR-5 ovarian
A549 NSCLC = test system: A549 NSCLC
TK-10 renal = test system: TK-10 renal
DU-145 prostate = test system: DU-145 prostate
HCT-116 colon = test system: HCT-116 colon
MCF7 breast = test system: MCF7 breast
CCRF-CEM leukemia = test system: CCRF-CEM leukemia
CAKI-1 renal = test system: CAKI-1 renal
OVCAR-8 ovarian = test system: OVCAR-8 ovarian
HL-60(TB) leukemia = test system: HL-60(TB) leukemia
PC-3 prostate = test system: PC-3 prostate
BT-549 breast = test system: BT-549 breast
MDA-MB-231 breast = test system: MDA-MB-231 breast
U251 CNS = test system: U251 CNS
MOLT-4 leukemia = test system: MOLT-4 leukemia
SNB-75 CNS = test system: SNB-75 CNS
NCI/ADR-RES ovarian = test system: NCI/ADR-RES ovarian
NCI-H226 lung = test system: NCI-H226 lung
HS 578T breast = test system: HS 578T breast
COLO 205 colon = test system: COLO 205 colon
ACHN renal = test system: ACHN renal
NCI-H23 lung = test system: NCI-H23 lung
SN12C renal = test system: SN12C renal
SK-MEL-2 melanoma = test system: SK-MEL-2 melanoma
SK-OV-3 ovarian = test system: SK-OV-3 ovarian
KM12 colon = test system: KM12 colon
SR leukemia = test system: SR leukemia
RPMI-8226 leukemia = test system: RPMI-8226 leukemia
UO-31 renal = test system: UO-31 renal
IGROV1 ovarian = test system: IGROV1 ovarian
SW-620 colon = test system: SW-620 colon
MALME-3M melanoma = test system: MALME-3M melanoma
SF-539 CNS = test system: SF-539 CNS
SNB-19 CNS = test system: SNB-19 CNS
SF-268 CNS = test system: SF-268 CNS
786-0 renal = test system: 786-0 renal
UACC-62 melanoma = test system: UACC-62 melanoma
SK-MEL-5 melanoma = test system: SK-MEL-5 melanoma
M14 melanoma = test system: M14 melanoma
UACC-257 melanoma = test system: UACC-257 melanoma
NCI-H522 lung = test system: NCI-H522 lung
HT29 colon = test system: HT29 colon
MDA-MB-435 = test system: MDA-MB-435
T-47D breast = test system: T-47D breast
EKVX NSCLC = test system: EKVX NSCLC

Measured: TGI

Cc1cc(N(C)C)ccc1N=Nc1ccc2ncccc2c1
> 100 µM: MDA-N | HCT-15 colon | RXF 393 renal | K-562 leukemia | HOP-92 NSCLC | NCI-H460 lung | SF-295 CNS | OVCAR-5 ovarian | A549 NSCLC | DU-145 prostate | HCT-116 colon | MCF7 breast | CCRF-CEM leukemia | CAKI-1 renal | OVCAR-8 ovarian | HL-60(TB) leukemia | PC-3 prostate | BT-549 breast | MDA-MB-231 breast | U251 CNS | MOLT-4 leukemia | SNB-75 CNS | NCI/ADR-RES ovarian | NCI-H226 lung | HS 578T breast | COLO 205 colon | ACHN renal | NCI-H23 lung | SN12C renal | SK-MEL-2 melanoma | SK-OV-3 ovarian | KM12 colon | SR leukemia | RPMI-8226 leukemia | UO-31 renal | IGROV1 ovarian | SW-620 colon | MALME-3M melanoma | SF-539 CNS | SF-268 CNS | 786-0 renal | UACC-62 melanoma | M14 melanoma | UACC-257 melanoma | HT29 colon | MDA-MB-435 | T-47D breast | EKVX NSCLC
94 µM: SNB-19 CNS
76.2 µM: TK-10 renal
98.1 µM: SK-MEL-5 melanoma
62.8 µM: NCI-H522 lung
